Experimental findings from ChEMBL document CHEMBL5303708, “ECBD screening data for assay EOS300033” (2021) are described below.

Residues, ends and D or L forms follow the SMILES beside them. *: point of attachment. Cbz = O=C(OCc1ccccc1)*

For the experiment, the system named is SARS-CoV-2. The arrangement: species or system Chlorocebus sabaeus, Vero C1008. As to conditions: assay_design cell number determination; assay_format cell based format; assay_stage confirmatory assay; assaysupport stable transfection; bao_tags Fluorescence imaging cell growth inhibition assay; bioassay Fluorescence imaging cell growth inhibition assay; bioassay_setting in vitro; bioassay_type functional; detectioninstrument ArrayScan XTI HCS Reader; detectionmethod fluorescence microscopy.

`O=C(Nc1ccc(Cl)c(Cl)c1)Nc1ccc(Cl)c(Cl)c1` showed an IC50 relative of 5.12 µM. Consider `Nc1nc(S)c2ncn(C3OC(CO)C(O)C3O)c2n1` (stereo not drawn), for which the IC50 relative came to 16.2319 µM. `CS(=O)(=O)O.Cc1c(C(=O)c2cccc3ccccc23)c2cccc3c2n1[C@H](CN1CCOCC1)CO3` gave an IC50 relative of 11.9328 µM. `CC(C)(C)C(=O)/C(=C/c1cccc([N+](=O)[O-])c1)n1cncn1` registered an IC50 relative of 4.9629 µM. On to `COc1cc(/C=C2\SC(=O)NC2=O)ccc1Oc1ccc(C#N)cc1C(F)(F)F`, for which the IC50 relative was determined as 49.4361 µM. The compound `COc1cc2c(NC3CCN(C4CCCCC4)CC3)nc(N3CCCN(C(C)C)CC3)nc2cc1OCCCN1CCCCC1` returned an IC50 relative of 17.2224 µM.

Consider `O=c1cc(N2CCOCC2)oc2c(-c3cccc4c3sc3ccccc34)cccc12`, for which the IC50 relative amounted to 145.964 µM. Take `CC(C)(C)c1cc(C=C(C#N)C#N)cc(Br)c1O`: the IC50 relative was 7.2055 µM. Consider `CC(C)(C)c1ccccc1Oc1ncccc1NC(=O)Nc1ccc(OC(F)(F)F)cc1`, for which the IC50 relative was 9.5826 µM.

Regarding `C/C(=C\c1ccc(C(=O)O)cc1)c1ccc2c(c1)C(C)(C)CCC2(C)C`, the IC50 relative came to 54.1303 µM. In the case of `COc1cc2ncnc(Nc3cccc(Br)c3)c2cc1OC`, the IC50 relative is 13.3328 µM.

Take `Nc1ncnc2c1ncn2[C@@H]1CC[C@@H](O)[C@H]1O`: the IC50 relative came out at 3.6981 µM. Under `C[C@@H]1COCCN1c1cc(=O)n2c(n1)N(Cc1cncc(Cl)c1)[C@H](C(F)(F)F)CC2` stands 19.8832 µM; under `O=C(C1CC1)N1CC[C@@H](Cc2n[nH]c(=O)n2-c2ccc(-c3ccc4occc4c3)cc2)C1`, 32.5565 µM. Compound `CCN(CC)c1ccc2cc(-c3nc4ccccc4[nH]3)c(=O)oc2c1` gave an IC50 relative of 0.3531 µM. Under `Nc1ncc(-c2ccnc(Nc3ccncc3)n2)c(CC2CC2)n1` stands 12.577 µM. The compound `CC(C)(O)CNc1ncc(-c2ccnc(Nc3ccnc(Cl)c3)n2)c(CC2CC2)n1` displayed an IC50 relative of 793.9225 µM. The compound `CCCCn1c(NC(=O)c2cccs2)c(C#N)c2nc3ccccc3nc21` gave an IC50 relative of 13.3332 µM. For `Cl.O=C(O)Cc1cccc(OCCCN(Cc2cccc(C(F)(F)F)c2Cl)CC(c2ccccc2)c2ccccc2)c1`, the IC50 relative is 16.3401 µM.

The compound `CCc1c(-c2ccc3[nH]ncc3c2)cnc(N)c1-c1ccc(O)cc1` yielded an IC50 relative of 51.0608 µM.

In turn, `Cc1ccc(Oc2nc3cc(-c4ccc(-c5ccccc5)cc4)c(Cl)cc3[nH]2)cc1C(=O)O` displayed an IC50 relative of 351.9839 µM.

With `N#Cc1cccc(C#N)c1-c1nc2c3ccc(Cl)cc3c3ccccc3c2[nH]1`, the IC50 relative was determined as 15.4145 µM. Compound `COc1ccc(-c2c[nH]c3nccc(-c4ccsc4)c23)c(OC)c1` showed an IC50 relative of 28.2582 µM. On to `O=C(O)c1ccc(N2C(=O)/C(=C\c3ccc(-c4ccc([N+](=O)[O-])cc4)o3)C=C2c2ccccc2)cc1`, for which the IC50 relative is 651.6971 µM. `Cl.Cl.N[C@H]1CC[C@H](N[C@@H]2C[C@H]2c2ccccc2)CC1`: the IC50 relative stood at 65.2065 µM. Under `CS(=O)(=O)O.Cc1c(O)cccc1C(=O)NC(CSc1ccccc1)C(O)CN1CC2CCCCC2CC1C(=O)NC(C)(C)C` (stereo not drawn) stands 15.1399 µM.

Consider `Cl.O=C(c1c2ccccc2cc2ccccc12)N1CCC(N2CCC[C@@H](C(=O)N3CCOCC3)C2)CC1`, for which the IC50 relative came to 4.1627 µM.

`Cc1cnc(Nc2ccc(F)cc2Cl)nc1-c1c[nH]c(C(=O)N[C@H](CO)c2cccc(Cl)c2)c1` gave an IC50 relative of 9.1133 µM. Under `Nc1nc(O)c2[nH]nnc2n1` [8-AZAGUANINE] stands 3.8962 µM; under `Nc1nc(N)c2nc(CNc3ccc(C(=O)N[C@@H](CCC(=O)O)C(=O)O)cc3)cnc2n1` [AMINOPTERIN], 0.3554 µM. For `CNCc1ccc(-c2cc(-c3nc(-c4ccc(S(=O)(=O)C(C)C)cc4)cnc3N)on2)cc1` [BERZOSERTIB], the IC50 relative was 33.669 µM. The compound `Oc1c(Cl)cc(Cl)cc1Sc1cc(Cl)cc(Cl)c1O` [BITHIONOL] came in with an IC50 relative of 17.6664 µM. In turn, `CCCCOCCOc1ccc(-c2ccc3c(c2)/C=C(/C(=O)Nc2ccc([S@@+]([O-])Cc4cncn4CCC)cc2)CCCN3CC(C)C)cc1` [CENICRIVIROC] came in with an IC50 relative of 52.7809 µM. `C[C@@H]1C[C@@H]([C@H](O)CC2CC(=O)NC(=O)C2)C(=O)[C@@H](C)C1` [CYCLOHEXIMIDE]: the IC50 relative was determined as 2.4209 µM. Consider `CC1=NN(c2ccc(C)c(C)c2)C(=O)/C1=N\Nc1cccc(-c2cccc(C(=O)O)c2)c1O` [ELTROMBOPAG], for which the IC50 relative came to 56.9757 µM. The compound `COc1ccccc1[C@H](Cn1c(=O)n(C(C)(C)C(=O)O)c(=O)c2c(C)c(-c3ncco3)sc21)OC1CCOCC1` [FIRSOCOSTAT] came in with an IC50 relative of 0.1223 µM. Under `CC[n+]1c(-c2ccccc2)c2cc(N)ccc2c2ccc(N)cc21.[Br-]` [HOMIDIUM BROMIDE] stands 96.2744 µM. `CC(=O)[C@]1(O)Cc2c(O)c3c(c(O)c2[C@@H](O[C@H]2C[C@H](N)[C@H](O)[C@H](C)O2)C1)C(=O)c1ccccc1C3=O.Cl` [IDARUBICIN HYDROCHLORIDE] gave an IC50 relative of 28.5706 µM. In the case of `CN(Cc1cnc2nc(N)nc(N)c2n1)c1ccc(C(=O)N[C@@H](CCC(=O)O)C(=O)O)cc1` [METHOTREXATE], the IC50 relative is 0.0551 µM. Take `CC(C)C[C@@H](C=O)NC(=O)[C@H](CC(C)C)NC(=O)[C@H](CC(C)C)NC(=O)OCc1ccccc1` [MG-132] (Cbz-Leu-Leu-Leu-aldehyde): the IC50 relative amounted to 4.4656 µM. On to `COc1ccc2c(c1)[C@]1(C[C@H]1c1ccc3c(/C=C/c4ccc(CN5C[C@@H](C)O[C@@H](C)C5)cc4)n[nH]c3c1)C(=O)N2` [OCIFISERTIB], for which the IC50 relative is 14.7188 µM. Compound `C#CCC(Cc1cnc2nc(N)nc(N)c2n1)c1ccc(C(=O)N[C@@H](CCC(=O)O)C(=O)O)cc1` (stereo partly drawn) [PRALATREXATE] had an IC50 relative of 0.0052 µM. Turning to `Cn1c(Nc2ccc(C(F)(F)F)cc2)nc2cc(Oc3ccnc(-c4ncc(C(F)(F)F)[nH]4)c3)ccc21` [RAF-265], the IC50 relative is 10.7684 µM.

Regarding `CNC(=O)c1cc(Oc2ccc(NC(=O)Nc3ccc(Cl)c(C(F)(F)F)c3)c(F)c2)ccn1` [REGORAFENIB], the IC50 relative came out at 16.4573 µM.

Regarding `CN(C)c1cccc(-c2c3c(=O)n(-c4ccccc4Cl)[nH]c3cc(=O)n2C)c1` [SETANAXIB], the IC50 relative is 73.5962 µM.

For `O=C(Nc1ccc(Cl)cc1)Nc1ccc(Cl)c(Cl)c1` [TRICLOCARBAN], the IC50 relative was 8.2868 µM.

`COc1cc(NCc2ccc3nc(N)nc(N)c3c2C)cc(OC)c1OC` [TRIMETREXATE] gave an IC50 relative of 0.3486 µM. For `CC(C)(C)c1cc(C=C(C#N)C#N)cc(C(C)(C)C)c1O` [TYRPHOSTIN A9], the IC50 relative was found to be 0.8215 µM.
